Source: patent US8546076B2, “Mutational profile in HIV-1 GAG cleavage site correlated with phenotypic drug resistance” (Tibotec Pharmaceuticals Ltd., priority 2007, dated 2013)
Values joined by “and” are separate entries in the source; they are usually repeats but may differ in a detail not shown here. Equal values may be shown once. Read-outs that look alike come from different tables or passages of the source.

System: HIV-1
Details: for Change versus baseline in log10 viral load (NC = F, non-VF censored), Mean (SE) / Virologic response rate (TLOVR, non-VF censored) defined as a decrease ≧1.0 log10 in plasma viral load versus baseline / Virologic response rate (TLOVR, non-VF censored) defined as a viral load <50 HIV-1 RNA copies/mL / mean changes versus baseline in viral load (size of decrease): Week 24; for mean changes versus baseline in viral load (size of decrease): E428G and/or R452S at baseline
Procedure: Virologic response was defined as viral load ≦50 copies/mL at week 24.
GAG genotypic analysis was performed on virus isolates from subjects of pooled trials.
Virological failures were defined using the TLOVR non-virologic failure (VF)-censored algorithm in which the responses at time points after discontinuation are not imputed (i.e. left missing) for patients who drop for reasons other than virologic failures. Using this imputation, patients that drop out for reasons other than viro logic failure are not automatically considered as rebounders or non-responders.
Genotypic analyses were performed by automated population-based sequencing. Sequence data were aligned to the wildtype HIV-1/HXB2CG reference and reported as amino acid changes along GAG and PR. Genotypic mixtures (a combination of different amino acids at 1 position) were reported. Amino acids were presented with their one letter code. Mutations in the 5 PR cleavage sites in the GAG region, encompassing the amino acids 128-137 (p17/p24), 359-368 (p24/p2), 373-382 (p2/p7), 428-437 (p7/p1), and 444-453 (p1/p6), were reported.
Virologic response was defined using the TLOVR non-VF censored algorithm eliminating patients who had no chance to respond (discontinuation before Week 16). Several endpoints to assess virologic response, e.g. proportion of responders with confirmed 1.0 log10 decrease in viral load versus baseline, change in viral load from baseline (NC=F), and proportion of responders with viral load <50 or <400 HIV-1 RNA copies/mL were evaluated.
Virologic response was defined using the TLOVR, non-VF censored algorithm eliminating patients who had no chance to respond (discontinuation before Week 16), resulting in 445 subjects included in the analysis. To assess outcome, several endpoints including the primary endpoint (proportion of responders with confirmed 1.0 log10 decrease in viral load at Week 24), change in viral load from baseline at Week 24 and proportion of responders with viral load <50 HIV-1 RNA copies/mL at Week 24 were evaluated.
Only mutations present at baseline in 10 subjects of the no/non-naïve ENF group (N=327) were taken into consideration.

[1] = E428G (p7/p1) at baseline, All subjects
[2] = E428G (p7/p1) at baseline, naïve ENF
[3] = R452S (p1/p6) at baseline, All subjects
[4] = R452S (p1/p6) at baseline, naïve ENF

darunavir/ritonavir [DRV/rtv]
Change versus baseline in log10 viral load (NC = F, non-VF censored), Mean (SE) [1]: −1.07 (0.298) log10 HIV-1 RNA copies/mL
Virologic response rate (TLOVR, non-VF censored) defined as a decrease ≧1.0 log10 in plasma viral load versus baseline [1]: 9 (47.4) %
Virologic response rate (TLOVR, non-VF censored) defined as a viral load <50 HIV-1 RNA copies/mL [1]: 3 (15.8) %
Change versus baseline in log10 viral load (NC = F, non-VF censored), Mean (SE) [2]: −1.72 (0.763) log10 HIV-1 RNA copies/mL
Virologic response rate (TLOVR, non-VF censored) defined as a decrease ≧1.0 log10 in plasma viral load versus baseline [2]: 3 (75.0) %
Virologic response rate (TLOVR, non-VF censored) defined as a viral load <50 HIV-1 RNA copies/mL [2]: 1 (25.0) %
Change versus baseline in log10 viral load (NC = F, non-VF censored), Mean (SE) (E428G (p7/p1) at baseline, no/non-naïve ENF): −0.89 (0.318) log10 HIV-1 RNA copies/mL
mean changes versus baseline in viral load (size of decrease) (no/non-naïve ENF): < 1.0 log10 and > 0.5 log10
mean changes versus baseline in viral load (size of decrease) (other subgroups (All, naïve ENF)): > 1.0 log10
Virologic response rate (TLOVR, non-VF censored) defined as a viral load <50 HIV-1 RNA copies/mL (L449P (p1/p6) at baseline, All subjects): 12 (36.4) %
Virologic response rate (TLOVR, non-VF censored) defined as a viral load <50 HIV-1 RNA copies/mL (L449P (p1/p6) at baseline, naïve ENF): 6 (50.0) %
Change versus baseline in log10 viral load (NC = F, non-VF censored), Mean (SE) (Overall, All subjects): −1.84 (0.061) log10 HIV-1 RNA copies/mL
Virologic response rate (TLOVR, non-VF censored) defined as a decrease ≧1.0 log10 in plasma viral load versus baseline (Overall, All subjects): 315 (70.8) %
Virologic response rate (TLOVR, non-VF censored) defined as a viral load <50 HIV-1 RNA copies/mL (Overall, All subjects): 207 (46.5) %
Change versus baseline in log10 viral load (NC = F, non-VF censored), Mean (SE) (Overall, naïve ENF): −2.33 (0.109) log10 HIV-1 RNA copies/mL
Virologic response rate (TLOVR, non-VF censored) defined as a decrease ≧1.0 log10 in plasma viral load versus baseline (Overall, naïve ENF): 102 (86.4) %
Virologic response rate (TLOVR, non-VF censored) defined as a viral load <50 HIV-1 RNA copies/mL (Overall, naïve ENF): 66 (55.9) %
Change versus baseline in log10 viral load (NC = F, non-VF censored), Mean (SE) (Overall, no/non-naïve ENF): −1.67 (0.071) log10 HIV-1 RNA copies/mL
Change versus baseline in log10 viral load (NC = F, non-VF censored), Mean (SE) [3]: −1.12 (0.293) log10 HIV-1 RNA copies/mL
Virologic response rate (TLOVR, non-VF censored) defined as a decrease ≧1.0 log10 in plasma viral load versus baseline [3]: 12 (48.0) %
Virologic response rate (TLOVR, non-VF censored) defined as a viral load <50 HIV-1 RNA copies/mL [3]: 7 (28.0) %
Change versus baseline in log10 viral load (NC = F, non-VF censored), Mean (SE) [4]: −2.50 (0.276) log10 HIV-1 RNA copies/mL
Virologic response rate (TLOVR, non-VF censored) defined as a decrease ≧1.0 log10 in plasma viral load versus baseline [4]: 7 (100) %
Virologic response rate (TLOVR, non-VF censored) defined as a viral load <50 HIV-1 RNA copies/mL [4]: 6 (85.7) %
Change versus baseline in log10 viral load (NC = F, non-VF censored), Mean (SE) (R452S (p1/p6) at baseline, no/non-naïve ENF): −0.58 (0.312) log10 HIV-1 RNA copies/mL
Virologic response rate (TLOVR, non-VF censored) defined as a viral load <50 HIV-1 RNA copies/mL (S451T (p1/p6) at baseline, All subjects): 4 (18.2) %
Virologic response rate (TLOVR, non-VF censored) defined as a viral load <50 HIV-1 RNA copies/mL (S451T (p1/p6) at baseline, naïve ENF): 1 (12.5) %
virologic response (viral load ≦50 copies/mL) relative to overall response (week 24, E428G at baseline, univariate analysis, N=467): < 75 % of overall response
